Reference: patent US20030130636A1, “System for improving skin health of absorbent article wearers” (priority 2001, published 2003)
Several values for one entry are separate records, joined by “and”; a condition that tells them apart may be missing. Equal entries are not always repeated.

What was measured:
[1] = tested on: EPIDERM skin culture; assay: MTT assay, viability of EPIDERM skin culture; format: cell-based, human; settings: 0.4% (w/v) in PBS + protease insult, relative to control+control
Description: The MTT dye is taken up by the cells. The reduction of the dye as a result of cellular metabolism can be used to measure the cytotoxicity of the test compositions. In order to confirm viability, inserts of the EPIDERM skin culture that have already been subjected to the test compositions and biological insults are removed from their media and are washed consecutively through immersion in three different beakers of PBS. Fresh PBS is used for each test composition or control being evaluated. The PBS is discarded onto paper towel. The EPIDERM skin culture inserts are then patted onto paper towel and placed into the wells of a 24 well plate containing 300 microliters of pre-warmed media. After all of the EPIDERM skin culture inserts are washed, they are transferred to new 24 well plates containing 300 microliters of the MTT reagent. […] The plates are incubated for 2-3 hours in a 37° C., 5% CO2 incubator. After incubation, the EPIDERM skin culture inserts are transferred to 24 well plates and are immersed in 2 milliliters of MTT extraction buffer. The extraction buffer extracts the MTT reagent from the cells. […] The optical density (OD) of the samples is measured at 570 nm using a spectrophotometer. […] This reading is subtracted from a background reading at 650 nm to improve data quality.

[2] = tested on: EPIDERM skin culture; assay: EPIDERM skin culture study: IL-1α response to fecal protease (trypsin-chymotrypsin) insult; format: cell-based, human; settings: six hours, one value per set of experiments
Method: In order to evaluate the efficacy of the skin care solutions of the invention, a human skin culture was selected to model the response of the human epidermis. EPIDERM skin culture is a cornified, air-interfaced human skin culture. EPIDERM skin culture has multiple layers of progressively differentiated keratinocytes resembling human epidermis. EPIDERM EPI-200 skin culture can be purchased from MatTek Corporation of Ashland, MA. Experiments using EPIDERM skin culture are conducted in six well plates. Each well contains one milliliter of pre-warmed media that is the same as the EPIDERM skin culture media. The plates are then incubated in a 37° C., 5% CO2 incubator for thirty minutes. […]
After application of the insult solution, the well plates are incubated for six hours in the 37° C., 5% CO2 incubator. […] The response of the EPIDERM skin culture to the test compositions/control and the insult solution is determined by measuring the amount of interleukin-1 alpha (hereinafter “IL-1α”). Interleukin-1 alpha can be quantified using an Interleukin-1 alpha Quantikine Kit available from R&D Systems of Minneapolis, Minnesota. Interleukin-1 alpha measurements are converted to Loges for each of the treatments and the averages for each treatment are calculated. […]
(Test composition+insult) result=the measured amount of IL-1α from treatment with a test composition+protease insult. […]

O=C(O[C@@H]1Cc2c(O)cc(O)cc2O[C@@H]1c1cc(O)c(O)c(O)c1)c1cc(O)c(O)c(O)c1 [Epigallocatechin gallate] was tested, and the “Viability (percentage)” value [1] was 103% and 101% and 112%.

With [Cl-].[Cl-].[Sr+2] [Strontium Chloride] the “Mean Reduction of Interleukin-1 Alpha (percentage)” value ([2]; 1% in PBS) was 0% (10) and the “Mean Reduction of Interleukin-1 Alpha (percentage)” value ([2]; 10% in PBS) was 15% (10).
